# According to PMC6375636, “Monotherapy with a low-dose lipopeptide HIV fusion inhibitor maintains long-term viral suppression in rhesus macaques” (PLoS Pathogens, 2019):
# Peptide text beside a SMILES is read from it. * marks the point of attachment. Stearoyl = CCCCCCCCCCCCCCCCCC(=O)*; Palmitoyl = CCCCCCCCCCCCCCCC(=O)*
# How the values were obtained:
# Type in all cases: cell-based
# [1] = tested on: HIV-1 pseudovirus, primary Env 246_F3_C10_2; details: Env 246_F3_C10_2, subtype A/C; mean ± SD of 3 assays in triplicate
# Protocol: (§1) The inhibitory activities of inhibitors against HIV-1 pseudoviruses and replication-competent isolates were measured as described previously. Briefly, HIV-1 pseudoviruses were generated via the cotransfection of HEK293T cells with an Env-expressing plasmid and a backbone plasmid that encodes Env-defective, luciferase-expressing HIV-1 genome (pSG3Δenv). Viral stocks of replication-competent HIV-1 isolates were generated by transfecting viral molecular clones into HEK293T cells. Culture supernatants were harvested at 48 h posttransfection, and 50% tissue culture infectious doses (TCID50) in TZM-bl cells were determined. Inhibitors were prepared in 3-fold dilutions, mixed with 100 TCID50 of a virus, and then incubated for 1 h at room temperature. The mixture was added to TZM-bl cells (10^4/well), and the cells were incubated for additional 48 h at 37°C. Luciferase activity was measured as described above.
# [2] = tested on: HIV-1 pseudovirus, primary Env B02; details: Env B02, subtype B'; mean ± SD of 3 assays in triplicate
# Protocol: as §1
# HIV-1 THRO.c/2626 = details: Table 2; THRO.c/2626, subtype B, R5; mean ± SD of 3 assays in triplicate
# Protocol: as §1
# [3] = tested on: HIV-1 pseudovirus, primary Env GX11.13; details: Env GX11.13, subtype A/E; mean ± SD of 3 assays in triplicate
# Protocol: as §1
# [4] = tested on: HIV-1 pseudovirus, primary Env CNE55; details: Env CNE55, subtype A/E; mean ± SD of 3 assays in triplicate
# Protocol: as §1
# HIV-1 NL4-3 = details: Table 2; NL4-3, subtype B, X4; mean ± SD of 3 assays in triplicate
# Protocol: as §1
# [5] = tested on: HIV-1 pseudovirus, primary Env CE703010217_B6; details: Env CE703010217_B6, subtype C; mean ± SD of 3 assays in triplicate
# Protocol: as §1
# HIV-1 R3A = details: Table 2, subtype B, R5X4, mean ± SD of 3 assays in triplicate
# Protocol: as §1
# [6] = tested on: HIV-1 pseudovirus, primary Env SHX335.24; details: Env SHX335.24, subtype A/E; mean ± SD of 3 assays in triplicate
# Protocol: as §1
# [7] = tested on: HIV-1 pseudovirus, primary Env 43–22; details: Env 43–22, subtype B'; mean ± SD of 3 assays in triplicate
# Protocol: as §1
# [8] = tested on: divergent HIV-1 subtypes (pseudoviruses with primary Envs); details: mean of the 36 pseudoviruses of Table 3; for VRC01 >300000 apparently counted as 300000; read-out: Mean IC50 over divergent HIV-1 subtypes
# Protocol: as §1
# [9] = tested on: HIV-1 pseudovirus, primary Env 398-F1_F6_20; details: Env 398-F1_F6_20, subtype A; mean ± SD of 3 assays in triplicate
# Protocol: as §1
# [10] = tested on: HIV-1 pseudovirus, primary Env 92RW020; details: Env 92RW020, subtype A; mean ± SD of 3 assays in triplicate
# Protocol: as §1
# HIV-1 SG3 = details: Table 2; SG3, subtype B, X4; mean ± SD of 3 assays in triplicate
# Protocol: as §1
# [11] = tested on: replication-competent HIV-1 isolates; details: mean of the ten isolates of Table 2; read-out: Mean IC50 over the replication-competent isolates
# Protocol: as §1
# [12] = tested on: HIV-1 pseudovirus, primary Env SC422661.8; details: Env SC422661.8, subtype B; mean ± SD of 3 assays in triplicate
# Protocol: as §1
# [13] = tested on: HIV-1 pseudovirus, primary Env 92UG037.8; details: Env 92UG037.8, subtype A; mean ± SD of 3 assays in triplicate
# Protocol: as §1
# [14] = tested on: HIV-1 pseudovirus, primary Env X1632-S2-B10; details: Env X1632-S2-B10, subtype G; mean ± SD of 3 assays in triplicate
# Protocol: as §1
# [15] = tested on: HIV-1 pseudovirus, primary Env BJOX002000.03.2; details: Env BJOX002000.03.2, subtype B/C; mean ± SD of 3 assays in triplicate
# Protocol: as §1
# [16] = tested on: HIV-1 pseudovirus, primary Env CH64.20; details: Env CH64.20, subtype B/C; mean ± SD of 3 assays in triplicate
# Protocol: as §1
# [17] = tested on: HIV-1 pseudovirus, primary Env R3A; details: subtype B, mean ± SD of 3 assays in triplicate
# Protocol: as §1
# HIV-1 WITO.c/2474 = details: Table 2; WITO.c/2474, subtype B, R5; mean ± SD of 3 assays in triplicate
# Protocol: as §1
# [18] = tested on: HIV-1 pseudovirus, primary Env CH120.6; details: Env CH120.6, subtype B/C; mean ± SD of 3 assays in triplicate
# Protocol: as §1
# HIV-1 RHPA.c/2635 = details: Table 2; RHPA.c/2635, subtype B, R5; mean ± SD of 3 assays in triplicate
# Protocol: as §1
# [19] = tested on: HIV-1 pseudovirus, primary Env X2278_C2_B6; details: Env X2278_C2_B6, subtype B; mean ± SD of 3 assays in triplicate
# Protocol: as §1
# [20] = tested on: HIV-1 pseudovirus, primary Env CE1176_A3; details: Env CE1176_A3, subtype C; mean ± SD of 3 assays in triplicate
# Protocol: as §1
SMILES,IC50 [1] [pM],IC50 [2] [pM],IC50 (HIV-1 THRO.c/2626) [pM],IC50 [3] [pM],IC50 [4] [pM],IC50 (HIV-1 NL4-3) [pM],IC50 [5] [pM],IC50 (HIV-1 R3A) [pM],IC50 [6] [pM],IC50 [7] [pM],IC50 [8] [pM],IC50 [9] [pM],IC50 [10] [pM],IC50 (HIV-1 SG3) [pM],IC50 [11] [pM],IC50 [12] [pM],IC50 [13] [pM],IC50 [14] [pM],IC50 [15] [pM],IC50 [16] [pM],other results
"CCCCCCCCCCCCCCCC(=O)NCCCC[C@H](NC(=O)[C@H](CCC(=O)O)NC(=O)[C@H](CC(C)C)NC(=O)[C@H](CCCCN)NC(=O)[C@H](CCCCN)NC(=O)[C@H](CC(C)C)NC(=O)[C@H](CCC(=O)O)NC(=O)[C@H](CCC(=O)O)NC(=O)[C@H](CCC(=O)O)NC(=O)[C@H](CC(N)=O)NC(=O)[C@H](CCCCN)NC(=O)[C@H](CCCCN)NC(=O)[C@H](CCC(N)=O)NC(=O)[C@H](CCC(N)=O)NC(=O)[C@H](CCC(=O)O)NC(=O)[C@H](CCC(=O)O)NC(=O)[C@H](C)NC(=O)[C@H](CCCCN)NC(=O)[C@H](CCCCN)NC(=O)[C@H](CC(C)C)NC(=O)[C@H](CC(C)C)NC(=O)[C@H](CCC(=O)O)NC(=O)[C@H](CCC(=O)O)NC(=O)[C@@H](NC(=O)[C@H](CCCCN)NC(=O)[C@H](CCC(N)=O)NC(=O)[C@H](CCC(=O)O)NC(=O)[C@H](Cc1c[nH]c2ccccc12)NC(C)=O)[C@@H](C)CC)C(N)=O [LP-52, reference compound] (Ac-WEQKIEELLKKAEEQQKKNEEELKKLEK(Palmitoyl)-NH2)",17.5 ± 1.91,14.9 ± 1.55,27.1 ± 4.61,8.7 ± 0.88,17.3 ± 1.41,4.5 ± 2.49,11.7 ± 1.37,13.6 ± 1.99,18.9 ± 0.34,7.83 ± 0.74,17,9.48 ± 1.74,39.3 ± 1.51,5.22 ± 1.89,16.9,9.39 ± 1.76,28.2 ± 8.27,24.5 ± 2.39,36.8 ± 2.93,9.71 ± 0.84,IC50 [17]: 9.22 ± 1.9 pM; IC50 (HIV-1 WITO.c/2474): 5.29 ± 1.61 pM; IC50 [18]: 19.9 ± 1.48 pM; IC50 (HIV-1 RHPA.c/2635): 9.42 ± 1.34 pM; IC50 [19]: 1.17 ± 0.22 pM; IC50 [20]: 11.1 ± 1.52 pM
CCCCCCCCCCCCCCCCCC(=O)NCCCC[C@H](NC(=O)[C@H](CCC(=O)O)NC(=O)[C@H](CC(C)C)NC(=O)[C@H](CCCCN)NC(=O)[C@H](CCCCN)NC(=O)[C@H](CC(C)C)NC(=O)[C@H](CCC(=O)O)NC(=O)[C@H](CCC(=O)O)NC(=O)[C@H](CCC(=O)O)NC(=O)[C@H](CC(N)=O)NC(=O)[C@H](CCCCN)NC(=O)[C@H](CCCCN)NC(=O)[C@H](CCC(N)=O)NC(=O)[C@H](CCC(N)=O)NC(=O)[C@H](CCC(=O)O)NC(=O)[C@H](CCC(=O)O)NC(=O)[C@H](C)NC(=O)[C@H](CCCCN)NC(=O)[C@H](CCCCN)NC(=O)[C@H](CC(C)C)NC(=O)[C@H](CC(C)C)NC(=O)[C@H](CCC(=O)O)NC(=O)[C@H](CCC(=O)O)NC(=O)[C@@H](NC(=O)[C@H](CCCCN)NC(=O)[C@H](CCC(N)=O)NC(=O)[C@H](CCC(=O)O)NC(=O)[C@H](Cc1c[nH]c2ccccc12)NC(C)=O)[C@@H](C)CC)C(N)=O [LP-80] (Ac-WEQKIEELLKKAEEQQKKNEEELKKLEK(Stearoyl)-NH2),4.05 ± 0.47,8.9 ± 1.03,14.9 ± 1.93,4.85 ± 0.99,1.11 ± 0.18,2.45 ± 0.51,5.72 ± 1.32,5.67 ± 0.85,2.83 ± 0.66,3.24 ± 0.27,5.58,1.49 ± 0.26,9.74 ± 0.93,1.8 ± 0.42,7.09,2.55 ± 0.77,3.72 ± 1,5.56 ± 0.76,8.48 ± 0.08,5.75 ± 0.19,IC50 [17]: 6.34 ± 0.65 pM; IC50 (HIV-1 WITO.c/2474): 3.38 ± 1.09 pM; IC50 [18]: 10.6 ± 1.02 pM; IC50 (HIV-1 RHPA.c/2635): 4.81 ± 1.98 pM; IC50 [20]: 2.94 ± 0.19 pM
